Key:
[1] = test system: spheroidal aggregates of EMT6 murine breast cancer cells; assay: Test (c): growth inhibition of spheroidal aggregates of EMT6 murine breast cancer cells; format: cell-based; conditions: Mus musculus, 2 hours treatment, stasis of spheroid growth over 2-3 weeks, read-out: stasis ED50
Procedure: (c) An in vitro assay which determines the ability of a test compound to inhibit the growth in an oxygenated culture medium of spheroidal aggregates (˜400 microns in diameter) of EMT6 murine breast cancer cells. As the oxygen diffusion distance through tissue is approximately 120-150 microns, such spheroids have a chronically hypoxic central population of cells and a well oxygenated outer layer of cells. The multicellular spheroids were treated with test compounds for 2 hours as a well oxygenated suspension culture. The spheroids were subsequently washed free of test compound and selected spheroids were transferred to static culture so that the effect of treatment on volume growth could be measured. […]
EMT6 murine breast cells (obtained from P. R. Twentyman, MRC Oncology and Radiotherapeutics Unit, Cambridge, UK) were harvested from exponentially growing monolayer cultures and approximately 1×10^6 cells were used to inoculate a 500 ml spinner culture vessel containing Eagles minimal essential medium (200 ml; supplemented with 10% foetal calf serum, glutamate, non-essential amino acids, penicillin and streptomycin). […] The area of each spheroid was measured using an image analyser and the 24-well plates were transferred to a CO2 incubator at 37° C. The spheroids were then re-measured every 2-3 days for up to 21 days, with fresh culture medium (250 μl) being added to each well every 3 days. […]

[2] = test system: T18 murine breast tumours; assay: Test (d): in vivo growth delay of T18 murine breast tumours in Balb/c mice; conditions: single bolus dose of 20 mg/kg intraperitoneally
Description: (d) An in vivo assay in a group of Balb/c mice which determines the ability of a test compound to delay the growth of T18 murine breast tumours. The detailed methodology was as follows:
T18 murine breast tumour tissue was routinely maintained by animal to animal passage. To prepare a batch of tumours for an experiment, tumour tissue was removed from several donor Balb/c mice and placed in saline. Outer tissue was removed and healthy looking regions of tumour were cut into approximately 1 mm^3 pieces and implanted subcutaneously by trocar into the left flanks of anaesthetised female Balb/c mice. After 2-3 weeks, most of the implants had grown to approximately 8 mm in diameter. The animals were placed randomly into groups of 6-7, rejecting any with very large, or small, tumours. Each test compound was dissolved in DMSO and diluted with Cremophor EL followed by saline, to give a 1:1:3 mixture of DMSO, Cremophor EL and saline. Each test compound was administered by the intraperitoneal route as a single bolus dose (0.1 ml per 10 g body weight of each animal). Control animals received vehicle alone. All mice were weighed daily and the dimensions (length and width) of each tumour were measured every 2-3 days using vernier calipers. […] Growth curves were constructed and the effect of treatment was assessed using a growth delay endpoint.

`CCCC1=C(C(C)(C)CC(=O)N(C)c2ccc(N(CCCl)CCCl)cc2)C(=O)C=C(C)C1=O` [Example 1, N-{4-[bis(2-chloroethyl)amino]phenyl}-3-(5-methyl-3-propyl-1,4-benzoquinon-2-yl)-3-methyl-N-methylbutyramide] was tested, and the EC50 [1] was about 4 µM and the growth delay [2] was “approximately 9 days”.

Source: patent US6472435B1, “Anti-tumor agents” (Astrazeneca AB, priority 1998, dated 2002)
